Test results published in publication PMC4788259 (PLoS Neglected Tropical Diseases, 2016).

Test system: E. multilocularis metacestodes
Assay: PGI assay: phosphoglucose isomerase release from damaged metacestodes
Type: cell-based, Echinococcus multilocularis
Settings: 10 μM, 5 days, single wells, relative to DB1127 (10 μM)
Protocol: The preparation of E. multilocularis metacestode material (strain H95) from intraperitoneally (i.p.) infected BALB/c mice was performed as described earlier. Metacestode vesicles were used for in vitro drug screening when they reached 2 to 4 mm in diameter.
For screening of the Malaria Box against E. multilocularis metacestodes, the PGI screening assay was applied that measures the release of the enzyme phosphoglucose isomerase (PGI) upon physical impairment of metacestodes. The screening setup was done in 24 well plates as described by Stadelmann et al. For initial screening, each drug was applied at 10 μM to metacestodes in single wells. As a positive control-drug, the dicationic diguanidino compound DB1127 (10 μM) was used and 0.1% DMSO was added as negative control. Metacestodes were cultured in the presence of the compounds for 5 days, after which PGI release was quantified exactly as stated in Stadelmann et al. […] Averages, standard deviations and EC50 values were calculated in Microsoft Excel 2010.

CCN(CC)CCn1c(=N)n(CC(O)c2ccc(Cl)c(Cl)c2)c2ccccc21.Cl (stereo not drawn) [MMV000248]
PGI (% of DB1127 at 10 uM): -18.11%

CCOc1ccc(Nc2c3ccccc3nc3ccccc23)cc1.Cl [MMV000304]
PGI (% of DB1127 at 10 uM): 38.31%

Cc1ccc2nc(C)cc(Nc3cccc(C(F)(F)F)c3)c2c1.Cl [MMV000326]
PGI (% of DB1127 at 10 uM): 7.52%

Br.CCn1c2c(c(=N)c3c1CCC3)CCCC2 [MMV000340]
PGI (% of DB1127 at 10 uM): 2.86%

O=C(O)C(=O)O.Oc1ccc(Br)cc1CN1CCN(Cc2cccc(F)c2)CC1 [MMV000356]
PGI (% of DB1127 at 10 uM): -18.68%

CCOc1ccc2c(c1)CN(Cc1ccc(Cl)cc1)CO2 [MMV000443]
PGI (% of DB1127 at 10 uM): -40.44%

CCCCCn1c(=N)n(CC(O)COc2cccc(C)c2)c2ccccc21.Cl (stereo not drawn) [MMV000444]
PGI (% of DB1127 at 10 uM): 66.85%

CCCCCCn1c(=N)n(CC(O)COc2cccc(C)c2)c2ccccc21.Cl (stereo not drawn) [MMV000445]
PGI (% of DB1127 at 10 uM): 130.28%

CN(C)CCCNc1c2ccccc2nc2ccccc12 [MMV000448]
PGI (% of DB1127 at 10 uM): -25.46%

CCOc1cc2c(cc1OCC)C(c1cc(Cl)ccc1O)NCC2 (stereo not drawn) [MMV000478]
PGI (% of DB1127 at 10 uM): 32.45%

CCOc1cc2c(cc1OCC)C(c1cc(Cl)c(O)c(OCC)c1)NCC2 (stereo not drawn) [MMV000481]
PGI (% of DB1127 at 10 uM): -21.47%

CCOc1cc2c(cc1OCC)C(c1cc(C)c(O)c(C)c1)NCC2.Cl (stereo not drawn) [MMV000483]
PGI (% of DB1127 at 10 uM): -22.26%

CCN(CC)c1cc(C)c2cc(NC(=O)c3cccc(OC)c3)ccc2n1 [MMV000498]
PGI (% of DB1127 at 10 uM): 4.05%

CCCN(CCC)CCCNC(=O)c1cc2c(-c3ccc(OC)c(OC)c3)nn(C)c2s1 [MMV000561]
PGI (% of DB1127 at 10 uM): -1.54%

CCc1ccc(Nc2cc(C)c3ccc(O)cc3n2)cc1.Cl [MMV000570]
PGI (% of DB1127 at 10 uM): -6.94%

COc1ccc(-c2cc(=O)oc3c4c(ccc23)OCN(Cc2ccc(F)cc2)C4)cc1 [MMV000604]
PGI (% of DB1127 at 10 uM): 3.81%

COc1ccc(C(O)(CCC(C)C)C(CN2CCOCC2)c2ccc(Cl)cc2)cc1.Cl (stereo not drawn) [MMV000617]
PGI (% of DB1127 at 10 uM): -8.60%

CCCCC(O)(c1ccc(Cl)cc1)C(CN1CCOCC1)c1ccc(Cl)cc1.Cl (stereo not drawn) [MMV000619]
PGI (% of DB1127 at 10 uM): -6.41%

CC(O)(c1ccc(Cl)cc1)C(CN1CCCCC1)c1ccccc1.Cl (stereo not drawn) [MMV000620]
PGI (% of DB1127 at 10 uM): -136.22%

CCCCCCC(O)(c1ccc(F)cc1)C(CN1CCOCC1)c1ccccc1.Cl (stereo not drawn) [MMV000621]
PGI (% of DB1127 at 10 uM): -30.63%

CC1CCCCN1CCCNC(=O)c1ccc2c(c1)sc1nc(-c3ccc(F)cc3)cn12 (stereo not drawn) [MMV000634]
PGI (% of DB1127 at 10 uM): -120.82%

COc1ccc(NC(=O)C2c3ccccc3C(=O)N(CC(C)C)C2c2cccs2)cc1Cl (stereo not drawn) [MMV000642]
PGI (% of DB1127 at 10 uM): -45.07%

COc1ccccc1CNC(=O)C1c2ccccc2C(=O)N(CC(C)C)C1c1cccs1 (stereo not drawn) [MMV000648]
PGI (% of DB1127 at 10 uM): -8.86%

CCOc1ccccc1CNC(=O)C1c2ccccc2C(=O)N(CC(C)C)C1c1cccs1 (stereo not drawn) [MMV000653]
PGI (% of DB1127 at 10 uM): -120.29%

COc1ccc(NC(=O)C2c3ccccc3C(=O)N(CC(C)C)C2c2cccs2)cc1 (stereo not drawn) [MMV000662]
PGI (% of DB1127 at 10 uM): -25.19%

Cc1ccc(C2CC(C(F)(F)F)n3nc(C(=O)N4CCN(C(c5ccccc5)c5ccccc5)CC4)cc3N2)cc1 (stereo not drawn) [MMV000699]
PGI (% of DB1127 at 10 uM): -1.50%

CCOC(=O)c1cnc2ccc(OC)cc2c1Nc1ccc(N2CCN(C)CC2)cc1 [MMV000704]
PGI (% of DB1127 at 10 uM): 8.26%

Cc1ccnc(NC(c2cccc(OCc3ccccc3)c2)c2ccc3cccnc3c2O)c1 (stereo not drawn) [MMV000720]
PGI (% of DB1127 at 10 uM): -5.36%

Oc1ccc(-c2nc(-c3ccc4oc5ccc(-c6[nH]c(-c7ccc(O)cc7)nc6-c6ccccc6)cc5c4c3)c(-c3ccccc3)[nH]2)cc1 [MMV000753]
PGI (% of DB1127 at 10 uM): -5.15%

Oc1c(CN2CCN(c3ccccc3F)CC2)cc(Br)c2cccnc12 [MMV000760]
PGI (% of DB1127 at 10 uM): -8.56%

CCCOCc1cc(CN2CCN(c3cccc(Cl)c3)CC2)c(O)c2ncccc12 [MMV000787]
PGI (% of DB1127 at 10 uM): 45.98%

CC(C)OCc1cc(CN2CCN(c3cccc(Cl)c3)CC2)c(O)c2ncccc12 [MMV000788]
PGI (% of DB1127 at 10 uM): -14.40%

Cl.OC(CNCc1ccccc1)Cn1c2ccccc2c2ccccc21 (stereo not drawn) [MMV000839]
PGI (% of DB1127 at 10 uM): -2.41%

OC(CNC1CCCC1)Cn1c2ccccc2c2ccccc21 (stereo not drawn) [MMV000848]
PGI (% of DB1127 at 10 uM): 6.03%

Cc1ccc(NC(=O)Nc2cccc(Cl)c2)cc1F [MMV000911]
PGI (% of DB1127 at 10 uM): 185.05%

COc1ccc2c(c1OC)C(=O)N1c3ccccc3N=C(c3ccc(C)cc3)CC21 (stereo not drawn) [MMV000917]
PGI (% of DB1127 at 10 uM): -0.60%

COc1ccc(Nc2nc(NCc3ccccc3)c3ccccc3n2)cc1 [MMV000963]
PGI (% of DB1127 at 10 uM): 109.36%

O=C1CC(O)(C(F)(F)C(F)(F)F)Oc2ccccc21 (stereo not drawn) [MMV000972]
PGI (% of DB1127 at 10 uM): 141.59%

CN1CCN(c2nc(Nc3ccc(O)cc3)nc3ccccc23)CC1.Cl [MMV000986]
PGI (% of DB1127 at 10 uM): -4.90%

Cc1ccc(Nc2nc(NCCO)c3ccccc3n2)cc1C [MMV001038]
PGI (% of DB1127 at 10 uM): 16.86%

OCCNc1nc(Nc2ccc(Cl)c(Cl)c2)nc2ccccc12 [MMV001041]
PGI (% of DB1127 at 10 uM): 6.70%

CC(C)c1ccc(CNCC(O)c2ccccc2)cc1.Cl (stereo not drawn) [MMV001049]
PGI (% of DB1127 at 10 uM): 12.43%

CCOc1cccc2sc(N(Cc3cccnc3)C(=O)C3CCCCC3)nc12 [MMV001230]
PGI (% of DB1127 at 10 uM): -26.73%

COc1ccc2sc(N(Cc3cccnc3)C(=O)c3ccc(C#N)cc3)nc2c1 [MMV001239]
PGI (% of DB1127 at 10 uM): -2.38%

COc1ccc(C)c2sc(N(Cc3cccnc3)C(=O)c3ccc(C#N)cc3)nc12 [MMV001241]
PGI (% of DB1127 at 10 uM): -0.13%

CSc1ccccc1C(=O)Nc1nc(-c2ccccn2)cs1 [MMV001246]
PGI (% of DB1127 at 10 uM): -29.53%

CCCCc1ccc(NS(=O)(=O)c2cc3c4c(c2)CCN4C(=O)CC3)cc1 [MMV001255]
PGI (% of DB1127 at 10 uM): -110.46%

CC1CC(C)CN(C(=O)c2ccc(Cl)cc2Cl)C1 (stereo not drawn) [MMV001344]
PGI (% of DB1127 at 10 uM): -22.37%

CCN(CC)CCNc1ccnc2cc(Cl)ccc12 [MMV006087]
PGI (% of DB1127 at 10 uM): -37.06%

CN1CCN(c2ccc(Nc3c4ccccc4nc4ccccc34)cc2)CC1 [MMV006172]
PGI (% of DB1127 at 10 uM): 2.41%

O=C(NCc1ccco1)C1CCN(S(=O)(=O)c2ccc(Cl)cc2)CC1 [MMV006188]
PGI (% of DB1127 at 10 uM): -16.08%

Cc1cc(NCCN2CCCCC2)c2ccc3ccccc3c2n1 [MMV006203]
PGI (% of DB1127 at 10 uM): -66.37%

CCOC(=O)c1cnc2c(C)cccc2c1Nc1ccc(C(C)=O)cc1 [MMV006250]
PGI (% of DB1127 at 10 uM): -32.91%

CCc1c(C)c(=N)c2ccccc2n1C.I [MMV006278]
PGI (% of DB1127 at 10 uM): -42.72%

CCN(CC)CCNc1ccnc2cc3ccccc3cc12 [MMV006303]
PGI (% of DB1127 at 10 uM): -4.34%

CN(C)c1ccc(C=Cc2nc(=O)c3ccccc3o2)cc1 [MMV006309]
PGI (% of DB1127 at 10 uM): 24.63%

O=C1c2ccccc2C2=Nc3ccccc3SC(c3cccc(F)c3)C12 (stereo not drawn) [MMV006389]
PGI (% of DB1127 at 10 uM): -15.52%

COc1cc(OC)c(N(C)C(=O)c2cc3c(s2)-c2ccccc2S(=O)(=O)C3)cc1Cl [MMV006427]
PGI (% of DB1127 at 10 uM): -47.62%

Cc1cc(NC(=O)C2c3ccccc3C(=O)N(CC(C)C)C2c2cccs2)no1 (stereo not drawn) [MMV006429]
PGI (% of DB1127 at 10 uM): -37.87%

CCCN(CCC)CC(O)COc1ccccc1C(=O)Nc1ccccc1 (stereo not drawn) [MMV006455]
PGI (% of DB1127 at 10 uM): -26.39%
